Assay results taken from US20130005747A1, “METHOD FOR SELECTING A CANCER THERAPY” (Cyclacel Limited, priority 2010, published 2013).
Entries after “also recorded” stand apart in the source; their conditions may differ.

How the values were obtained:
[1] = tested on: H-522 human lung cancer cell line; assay: Growth inhibition of lung cancer cells (FIG. 6); format: cell-based; conditions: for growth inhibition / sensitivity (in words): 72 hours post-treatments, wild-type ras
Description: Thus, findings from this large panel of cancer cell lines indicated significant roscovitine sensitivity well beyond those human and murine lung cancer cells already investigated. For lung cancer cells, this response is tightly associated with the presence of ras activation in highly responsive cells.

[2] = tested on: nasopharyngeal cancer (NPC); assay: Clinical study of seliciclib in previously treated advanced solid tumors enriched for NPC; format: in vivo, human
Description: The incidence of nasopharyngeal cancer (NPC) varies, with higher rates in southern Asia, intermediate rates in Mediterranean basin countries as well as in Greenland and Alaska populations, and low rates in most of the western countries (Chang et al 2006 Cancer Epidemiol. Biomarkers Prev. v15 p 1765). A clinical study of R-roscovitine (seliciclib) in patients with previously treated advanced solid tumors that was heavily enriched for NPC patients was performed. […] Patients were also evaluated for overall survival, response rate, response duration, safety, and tolerability.
A total of 23 patients were enrolled on the study (11 at 400 mg bid and 12 at 800 mg qd.).
This patient was […] and thus not from one of the patient populations where NPC is more prevalent. K-Ras mutations are extremely rare in NPC patients. A biopsy sample from this patient was analysed for K-Ras mutational status. DNA was extracted from a paraffin embedded tumor sample and analysed for a total of 12 different mutations in Gly12 and Gly13 which represent the most common K-Ras activating mutations. Analysis was performed using a standard PCR-RFLP methodology as has been reported previously (Hatzaki et al 2001 Molecular and Cellular Probes; v15, 243) which identified a K-Ras activating mutation at Gly12 in the tumor sample.
This was a longer period of clinical benefit than achieved with four previous therapies.

[3] = tested on: nasopharyngeal cancer (NPC); conditions: Phase I, patients with nasopharyngeal cancer; cited from earlier work
[4] = tested on: C-10 murine immortalized pulmonary epithelial cells; assay: Growth inhibition of immortalized pulmonary epithelial cells (FIG. 6B); format: cell-based
[5] = tested on: 270 human cancer cell lines; assay: Pharmacogenomic analysis of cancer cell lines, summary; format: cell-based; conditions: over half of investigated lung, pancreatic, head and neck, esophageal, liver, thyroid, ovarian, uterine, and skin cancer cell lines; 72 hours
Description: A total of 270 human cancer cell lines from diverse cancer histopathologic types were investigated.

CC[C@H](CO)Nc1nc(NCc2ccccc2)c2ncn(C(C)C)c2n1 [seliciclib, roscovitine]
growth inhibition / sensitivity (in words) ([1]; listed as Seliciclib): dose-dependent growth inhibition | growth inhibition / sensitivity (in words) ([1]; listed as roscovitine): less sensitive than others examined | proliferation, combined treatment (in words) ([1]; seliciclib combined with docetaxel): cooperatively inhibited proliferation | proliferation, combined treatment (in words) ([1]; seliciclib combined with paclitaxel): cooperatively inhibited proliferation | disease response among the NPC patients ([2]; a number of individuals, 400 mg bid or 800 mg qd): prolonged stable disease | duration of stable disease ([2]; one NPC patient with K-Ras activating mutation at Gly12, schedule B, 800 mg once per day, four days every week): stable disease for over two years; also recorded: stable disease for greater than two years | tolerability ([2]; patients, 400 mg bid and 800 mg qd, four consecutive days every week): well tolerated | copy counts of the EBV virus [3]: concomitant reduction in copy counts of the EBV virus | tumor response [3]: evidence of tumor shrinkage | growth inhibition (in words) [4]: Dose-dependent growth inhibition | growth inhibition compared with vehicle treated cells [5]: at least 50%
